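How tested: cells in 96-well plates exposed to compound for 48 hours at five concentrations. Here, GI50 denotes the concentration required for 50% inhibition of growth.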 Calls of active or inactive are those of the source. No stated cut-off is given here; in the data, active = GI50 up to about 1.1 µM and inactive = higher.
Tests used:
Assay in all cases: NCI-60 cell line screen, 48 h
OVCAR-8 = test system: OVCAR-8
MDA-MB-435 = test system: MDA-MB-435
A549 = test system: A549
UACC-62 = test system: UACC-62
NCI/ADR-RES = test system: NCI/ADR-RES
SK-MEL-2 = test system: SK-MEL-2
SNB-19 = test system: SNB-19
MDA-MB-231 = test system: MDA-MB-231
SN12C = test system: SN12C
NCI-H460 = test system: NCI-H460
T47D = test system: T47D
SW-620 = test system: SW-620
SF-539 = test system: SF-539
KM12 = test system: KM12
UO-31 = test system: UO-31
SF-268 = test system: SF-268
SK-MEL-28 = test system: SK-MEL-28
U-251 = test system: U-251
SR = test system: SR
RPMI-8226 = test system: RPMI-8226

| Compound | GI50 (OVCAR-8) | GI50 (MDA-MB-435) | GI50 (A549) | GI50 (UACC-62) | GI50 (NCI/ADR-RES) | GI50 (SK-MEL-2) | GI50 (SNB-19) | GI50 (MDA-MB-231) | GI50 (SN12C) | GI50 (NCI-H460) | GI50 (T47D) | GI50 (SW-620) | GI50 (SF-539) | GI50 (KM12) | GI50 (UO-31) | GI50 (SF-268) | GI50 (SK-MEL-28) | GI50 (U-251) | GI50 (SR) | GI50 (RPMI-8226) |
| --- | --- | --- | --- | --- | --- | --- | --- | --- | --- | --- | --- | --- | --- | --- | --- | --- | --- | --- | --- | --- |
| O=C1c2ccccc2C(=O)N1CCCSc1ccccc1 | > 100 µM (inactive) | > 100 µM (inactive) | 76.2 µM (inactive) | 71.6 µM (inactive) | 52 µM (inactive) | > 100 µM (inactive) | > 100 µM (inactive) | > 100 µM (inactive) | 71.3 µM (inactive) | 90.6 µM (inactive) | 31.3 µM (inactive) | > 100 µM (inactive) | > 100 µM (inactive) | 94.4 µM (inactive) | 60.5 µM (inactive) | > 100 µM (inactive) | > 100 µM (inactive) | 91.4 µM (inactive) | 31.8 µM (inactive) | 42.8 µM (inactive) |
| CN(C)c1ccc(/C(F)=C(F)/C(F)=C(F)/C(F)=C(\F)c2ccc(Br)cc2)cc1 | 33 µM (inactive) | 3.1 µM (inactive) | 31.5 µM (inactive) | 22.9 µM (inactive) | 6.4 µM (inactive) | 25.9 µM (inactive) | 23.7 µM (inactive) | 39.5 µM (inactive) | 6.61 µM (inactive) | 26.2 µM (inactive) | 34.7 µM (inactive) | 22.1 µM (inactive) | 33 µM (inactive) | 9.53 µM (inactive) | 25.1 µM (inactive) | 51.8 µM (inactive) | > 100 µM (inactive) | 17.5 µM (inactive) | 5 µM (inactive) | 32.7 µM (inactive) |
| CC(=O)Nc1ccc2nc(N)n[n+]([O-])c2c1 | > 100 µM (inactive) | > 100 µM (inactive) | > 100 µM (inactive) | > 100 µM (inactive) | > 100 µM (inactive) | > 100 µM (inactive) | > 100 µM (inactive) | > 100 µM (inactive) | > 100 µM (inactive) | > 100 µM (inactive) | 79.8 µM (inactive) | > 100 µM (inactive) | > 100 µM (inactive) | > 100 µM (inactive) | > 100 µM (inactive) | > 100 µM (inactive) | > 100 µM (inactive) | > 100 µM (inactive) | > 100 µM (inactive) | > 100 µM (inactive) |
| CC1OC(OC2C(CO)OC(O[C@H]3CC[C@@]4(C)C(=CC[C@H]5[C@@H]6C[C@@H]7O[C@](O)(CC[C@H](CO)COC8OC(CO)C(O)C(O)C8O)[C@@H](C)[C@@H]7[C@@]6(C)CC[C@@H]54)C3)C(OC3OC(C)C(O)C(O)C3O)C2O)C(O)C(O)C1O (stereo not given in full) | > 100 µM (inactive) | > 100 µM (inactive) | > 100 µM (inactive) | > 100 µM (inactive) | 91.4 µM (inactive) | > 100 µM (inactive) | > 100 µM (inactive) | > 100 µM (inactive) | > 100 µM (inactive) | > 100 µM (inactive) | > 100 µM (inactive) | > 100 µM (inactive) | > 100 µM (inactive) | > 100 µM (inactive) | > 100 µM (inactive) | > 100 µM (inactive) | > 100 µM (inactive) | > 100 µM (inactive) | > 100 µM (inactive) | > 100 µM (inactive) |
| N[C@@H]1c2c(Br)sc(Br)c2C(=O)[C@H]1Br | 20.5 µM (inactive) | 23 µM (inactive) | > 100 µM (inactive) | 20.5 µM (inactive) | 22.2 µM (inactive) | > 100 µM (inactive) | 45.9 µM (inactive) | 23.6 µM (inactive) | 24.9 µM (inactive) | 57.1 µM (inactive) | 30.2 µM (inactive) | 18.7 µM (inactive) | > 63.1 µM (inactive) | 26.4 µM (inactive) | 27.9 µM (inactive) | 31.2 µM (inactive) | 28.5 µM (inactive) | 22.7 µM (inactive) | 16.1 µM (inactive) | 7.45 µM (inactive) |
| O=C(O)c1nc(-c2ccccc2)ncc1-c1nnnn1-c1ccccc1 | > 100 µM (inactive) | > 100 µM (inactive) | > 100 µM (inactive) | > 100 µM (inactive) | > 100 µM (inactive) | > 100 µM (inactive) | > 100 µM (inactive) | > 100 µM (inactive) | > 100 µM (inactive) | > 100 µM (inactive) | > 100 µM (inactive) | > 100 µM (inactive) | > 100 µM (inactive) | > 100 µM (inactive) | > 100 µM (inactive) | > 100 µM (inactive) | > 100 µM (inactive) | > 100 µM (inactive) | > 100 µM (inactive) | > 100 µM (inactive) |
| COc1ccc2c(c1)C1=NCCN(CCO)c3ccc([N+](=O)[O-])c(c31)N2 | 0.201 µM (active) | 0.493 µM (active) | 0.427 µM (active) | 0.422 µM (active) | 1.23 µM (inactive) | 0.587 µM (active) | 0.59 µM (active) | 0.468 µM (active) | 0.429 µM (active) | 0.274 µM (active) | 0.532 µM (active) | 0.187 µM (active) | 0.415 µM (active) | 0.505 µM (active) | 0.265 µM (active) | 0.752 µM (active) | 0.624 µM (active) | 0.506 µM (active) | 0.0368 µM (active) | 0.29 µM (active) |
| COc1ccc(/C=C(/C(=O)c2ccc(Cl)cc2)N2C=CC=CC2=C(C#N)C#N)cc1OC | 4.27 µM (inactive) | 3.89 µM (inactive) | 14.4 µM (inactive) | 14.9 µM (inactive) | 10.4 µM (inactive) | 15.3 µM (inactive) | 15.1 µM (inactive) | 6.24 µM (inactive) | 17.4 µM (inactive) | 12.9 µM (inactive) | 4.06 µM (inactive) | 1.91 µM (inactive) | 3.92 µM (inactive) | 19.1 µM (inactive) | 1.5 µM (inactive) | 3.55 µM (inactive) | 3.4 µM (inactive) | 12.1 µM (inactive) | 2.35 µM (inactive) | 2.47 µM (inactive) |
| O=S(=O)(O)C1CCC(O)C2NCCCC21 (stereo not given) | > 100 µM (inactive) | > 100 µM (inactive) | > 100 µM (inactive) | > 100 µM (inactive) | > 100 µM (inactive) | > 100 µM (inactive) | > 100 µM (inactive) | > 100 µM (inactive) | > 100 µM (inactive) | > 100 µM (inactive) | > 100 µM (inactive) | > 100 µM (inactive) | > 100 µM (inactive) | > 100 µM (inactive) | > 100 µM (inactive) | > 100 µM (inactive) | > 100 µM (inactive) | > 100 µM (inactive) | > 100 µM (inactive) | > 100 µM (inactive) |

Source: ChEMBL document CHEMBL1201862, “PubChem BioAssay data set” (2004)
